Laboratory results from patent publication US20250186436A1 (4E Therapeutics, Inc., priority 2021, published 2025).
“And” between values parts separate entries of the source, which are not always exact repeats. Equal entries are not always repeated. Where two headings read alike, the source gives them in different places.

How the values were obtained:
[1] = Plasma and brain concentrations, brain to plasma ratio 24 hr after last of five 10 mg/kg PO doses (Example 7); assay type: in vivo; conditions: rats, 24 hr after the last of five 10 mg/kg PO doses; for concentration at 24 h: oral, 10 mg/kg
Description: Table 21 provides plasma and brain concentrations at 24 hr after the last dose of five daily P0 doses of 4ET-03-053.

[2] = Plasma and brain concentrations, brain to plasma ratio in male CD1 mice (Example 3); assay type: in vivo; conditions: 2 h post dosing; for concentration at 2 h: male, CD1, mouse
[3] = PK study in male Sprague-Dawley rats dosed once per day for five days, PO 10 mg/kg, 0.5% HPMC (Example 7); assay type: in vivo; conditions: 0.5% HPMC suspension
[4] = PK study in male Sprague-Dawley rats, IV 0.5 mg/kg and PO 1 mg/kg in 10% DMA/PG (Example 5); assay type: in vivo; conditions: for MRT inf: MRTinf
Description: Example 5: PK study of 4ET-03-053 in male Sprague-Dawley rats with IV (0.5 mg kg; 10% DMI 15% EtOH 35% PG 40% NS) and PO (1 mg kg; 10% DMA PG) dosing
In male Sprague-Dawley rats, following IV administration with 0.5 mg/kg 4ET-03-053, plasma concentrations declined in a multiphasic manner with an initial concentration (Co) of 1.24 ug/mL and a last measurable concentration (Clast) of 33.2 ng/mL at 24 h post dose.
Table 15 provides plasma and brain concentrations at 2 hr after a single P0 dose of 1 mg/kg.

[5] = Plasma and brain concentrations, brain to plasma ratio 24 hr after last of five 25 mg/kg PO doses (Example 8); assay type: in vivo; conditions: rats, 24 hr after the last of five 25 mg/kg PO doses; for concentration at 24 hr / concentration at 24 h: Sprague-Dawley, rat, oral, 25 mg/kg; for concentration at 24 h: male
Description: Table 24 provides plasma and brain concentrations at 24 hr after the last dose of five daily PO doses of 4ET-03-053.

[6] = test system: eIF4E phosphorylation in hDRGs; test: p-eIF4E immunofluorescence in cultured human dorsal root ganglion cells (hDRGs); assay type: cell-based; conditions: immunofluorescence
Description: For all human DRG experiments, DRGs were recovered from organ donors at the Southwest Transplant Alliance under an IRB approved protocol at University of Texas at Dallas. DRGs were recovered within 3 hrs of cross clamp. DRGs were recovered and taken back to the University of Texas lab where they were cultured using the protocol described previously. Cultures were grown on glass coverslips for microscopy. Coverslips were coated with poly-D-lysine and laminin to improve neuronal adherence to the coverslips. Cultures of human DRG neurons were grown for 4-7 days prior to treatment with OSM. OSM treatment was done in culture media for a period of 30 min. Cells were stained with antibodies using the same protocol as described above for HEK293 cells. Imaging was done on an Olympus FV1200 microscope and image analysis was done with CellSens software. Statistical analysis was done with Graphpad Prism V8.
Human DRG recovery and other experimental protocols were the same as described herein.

[7] = PK study in CD-1 male mice with IV and PO dosing (Example 3); assay type: in vivo; conditions: for AUC(0-t): AUClast; for concentration at 24 h: Clast; for MRT inf: MRTinf
Description: Example 3: PK study of 4ET-03-053 in CD-1 male mice with IV and PO dosing
In mice, following IV administration with 1.5 mg/kg, plasma concentrations declined in a multiphasic manner with an initial concentration (Co) of 708 ng/mL and a last measurable concentration (Clast) of 5.29 ng/mL at 24 h post dose.

paclitaxel CIPN mice = test: Conditioned Place Preference (CPP) test with chemotherapy induced peripheral neuropathy (CIPN) mice; assay type: in vivo
Description: Mice were treated over a period of 8 days with 4 injections of paclitaxel, made in ethanol and kollipher vehicle, each at 4 mg/kg for a cumulative dose of 16 mg/kg. […] 4ET-03-053 was given with pairing with the white chamber in the CPP box with the idea that pain relief in the white chamber will counteract the natural aversion mice have to areas with bright light.

[8] = brain homogenate, individual animals (n = 3)
[9] = plasma, individual animals (n = 3)
[10] = male Sprague-Dawley rats, IV 0.5 mg/kg, 10% DMI:15% EtOH:35% PG:40% NS, individual animals, 0.5 mg/kg
[11] = male, Sprague-Dawley, rat, in vivo, iv, 0.5 mg/kg
[12] = male, Sprague-Dawley, rat, in vivo, po, 1 mg/kg
[13] = male, CD-1, mouse, in vivo, iv, 1.5 mg/kg
[14] = male, CD-1, mouse, in vivo, po, 10 mg/kg

Question: Which results are given for Cc1cc(Nc2cc(N)ncn2)c(=O)n2c1C(=O)NC21CCC2(CC2)CC1 [4ET-03-053, 6″-((6-Aminopyrimidin-4-yl)amino)-8″-methyl-2″H-dispiro[cyclopropane-1,1′-cyclohexane-4′,3″-imidazo[1,5-a]pyridine]-1″,5″-dione]?
Answer: concentration at 24 h ([1]; male, Sprague-Dawley, rat, brain homogenate, brain homogenate, individual animals (n = 3), read-out: Tissue Homogenate Conc.): 75.6 ng/mL; concentration at 24 h ([1]; male, Sprague-Dawley, rat, brain homogenate, brain homogenate, mean, read-out: Tissue Homogenate Conc., Mean): 85.6 ng/mL; concentration at 24 h ([1]; male, Sprague-Dawley, rat, brain, brain, read-out: Mean Tissue): 342 ng/g; concentration at 24 h ([1]; male, Sprague-Dawley, rat, plasma, plasma, individual animals (n = 3), read-out: Plasma Conc.): 2390 ng/mL; concentration at 24 h ([1]; male, Sprague-Dawley, rat, plasma, plasma, mean, read-out: Plasma Conc., Mean): 2670 ng/mL; Kp at 24 h ([1]; male, Sprague-Dawley, rat, brain to plasma, read-out: Mean Tissue/Plasma Conc. Ratio): 0.128; Tissue Homogenate Conc. [1, 8]: 88.2 ng/mL and 93.0 ng/mL; Plasma Conc. [1, 9]: 2740 ng/mL and 2880 ng/mL; Brain Tissue Homogenate Conc. ([2]; individual animals (n = 3)): 5.89 ng/mL and 6.41 ng/mL; Plasma Conc. ([2]; individual animals (n = 3)): 584 ng/mL and 661 ng/mL; concentration at 2 h ([2]; brain tissue homogenate, individual animals (n = 3), read-out: Brain Tissue Homogenate Conc.): 4.61 ng/mL; concentration at 2 h ([2]; brain tissue homogenate, mean, read-out: Brain Tissue Homogenate Conc., Mean): 5.64 ng/mL; concentration at 2 h ([2]; brain tissue, read-out: Brain Mean Tissue): 22.5 ng/g; concentration at 2 h ([2]; plasma, individual animals (n = 3), read-out: Plasma Conc.): 488 ng/mL; concentration at 2 h ([2]; plasma, mean, read-out: Plasma Conc., Mean): 578 ng/mL; Kp at 2 h ([2]; mouse, brain/plasma, read-out: Mean Tissue/Plasma Conc. Ratio (brain to plasma ratio)): 0.039; MRT inf ([3]; male, Sprague-Dawley, rat, in vivo, po, 10 mg/kg, single PO 10 mg/kg dose, mean (n = 3)): 7.43 h; AUC(0-inf) ([3]; male, Sprague-Dawley, rat, in vivo, po, 10 mg/kg, single PO 10 mg/kg, read-out: total systemic exposure (AUCinf)): 272000 ng·h/mL; t1/2 ([3]; single PO 10 mg/kg dose, individual animals, 10 mg/kg): 4.83 h and 5.11 h; time to peak plasma concentration ([3]; single PO 10 mg/kg): ≤ 2 h; AUClast [4, 10]: 4654 ng·h/mL and 3767 ng·h/mL; Clast [4, 10]: 36.7 ng/mL and 29.7 ng/mL; C0 [4, 11]: 1240 ng/mL; AUC(0-inf) ([4]; male, Sprague-Dawley, rat, in vivo, iv, 0.5 mg/kg, AUCinf): 4080 ng·h/mL; clearance ([4]; male, Sprague-Dawley, rat, in vivo, iv, 0.5 mg/kg, CLp): 2.04 mL/min/kg; MRT inf [4, 11]: 7.69 h; Vd ([4]; male, Sprague-Dawley, rat, in vivo, iv, 0.5 mg/kg, Vss): 0.942 L/kg; concentration at 24 h ([4]; male, Sprague-Dawley, rat, in vivo, iv, 0.5 mg/kg, male Sprague-Dawley rats, 0.5 mg/kg IV, at 24 h, read-out: last measurable concentration (Clast)): 33.2 ng/mL; AUC(0-t) ([4]; male, Sprague-Dawley, rat, in vivo, iv, 0.5 mg/kg, male Sprague-Dawley rats, IV 0.5 mg/kg, 10% DMI:15% EtOH:35% PG:40% NS, individual animals, read-out: AUClast): 4030 ng·h/mL; concentration at 24 h ([4]; male, Sprague-Dawley, rat, in vivo, iv, 0.5 mg/kg, male Sprague-Dawley rats, IV 0.5 mg/kg, 10% DMI:15% EtOH:35% PG:40% NS, individual animals, read-out: Clast): 33.1 ng/mL; AUC(0-t) ([4]; male, Sprague-Dawley, rat, in vivo, iv, 0.5 mg/kg, male Sprague-Dawley rats, IV 0.5 mg/kg, 10% DMI:15% EtOH:35% PG:40% NS, mean (n = 3), read-out: AUClast): 4150 ng·h/mL; concentration at 24 h ([4]; male, Sprague-Dawley, rat, in vivo, iv, 0.5 mg/kg, male Sprague-Dawley rats, IV 0.5 mg/kg, 10% DMI:15% EtOH:35% PG:40% NS, mean (n = 3), read-out: Clast): 33.2 ng/mL; Vd ([4]; male, Sprague-Dawley, rat, in vivo, iv, 0.5 mg/kg, steady-state volume of distribution (Vss)): 0.87 L/kg; clearance ([4]; male, Sprague-Dawley, rat, in vivo, iv, 0.5 mg/kg, systemic clearance (CLp)): 1.87 mL/min/kg; half-life ([4]; male, Sprague-Dawley, rat, in vivo, iv, 0.5 mg/kg, t1/2): 7.26 h; half-life ([4]; male, Sprague-Dawley, rat, in vivo, iv, 0.5 mg/kg, terminal half-life (t1/2)): 7.33 h; AUC(0-inf) ([4]; male, Sprague-Dawley, rat, in vivo, iv, 0.5 mg/kg, total systemic exposure (AUCinf)): 4500 ng·h/mL; Tmax [4, 12]: 0.5 h; bioavailability [4, 12]: 76.7%; time to peak plasma concentration [4, 12]: ≤ 30 min; AUC(0-inf) ([4]; male, Sprague-Dawley, rat, in vivo, po, 1 mg/kg, AUCinf): 7020 ng·h/mL; AUC(0-t) ([4]; male, Sprague-Dawley, rat, in vivo, po, 1 mg/kg, AUClast): 6110 ng·h/mL; concentration at 24 hr ([4]; male, Sprague-Dawley, rat, in vivo, po, 1 mg/kg, Clast): 74.6 ng/mL; Cmax ([4]; male, Sprague-Dawley, rat, in vivo, po, 1 mg/kg, Cmax): 683 ng/mL; MRT inf [4, 12]: 10.6 h; concentration at 24 hr ([4]; male, Sprague-Dawley, rat, in vivo, po, 1 mg/kg, last measurable concentration): 74.6 ng/mL; Cmax ([4]; male, Sprague-Dawley, rat, in vivo, po, 1 mg/kg, peak plasma concentration (Cmax)): 683 ng/mL; half-life ([4]; male, Sprague-Dawley, rat, in vivo, po, 1 mg/kg, t1/2): 9.23 h; half-life ([4]; male, Sprague-Dawley, rat, in vivo, po, 1 mg/kg, terminal half-life (t1/2)): 9.23 h; AUC(0-inf) ([4]; male, Sprague-Dawley, rat, in vivo, po, 1 mg/kg, total systemic exposure (AUCinf)): 6900 ng·h/mL; concentration at 24 hr ([5]; brain homogenate, brain homogenate, mean, read-out: Tissue Homogenate Conc., Mean): 122 ng/mL; concentration at 24 hr ([5]; brain, brain, read-out: Mean Tissue): 489 ng/g; concentration at 24 h ([5]; brain homogenate, brain homogenate, individual animals (n = 3), read-out: Tissue Homogenate Conc.): 104 ng/mL; concentration at 24 h ([5]; plasma, plasma, individual animals (n = 3), read-out: Plasma Conc.): 5340 ng/mL; concentration at 24 h ([5]; plasma, plasma, mean, read-out: Plasma Conc., Mean): 5890 ng/mL; Tissue Homogenate Conc. [5, 8]: 127 ng/mL and 136 ng/mL; Plasma Conc. [5, 9]: 6120 ng/mL and 6220 ng/mL; phosphorylation of eIF4E in hDRGs ([6]; 30 min treatment): reduces phosphorylation of eIF4E; phosphorylation of eIF4E in hDRGs in the presence of OSM ([6]; in presence of OSM): reduces phosphorylation of eIF4E; F ([7]; CD-1 male mice, 10 mg/kg PO, individual animals, 10 mg/kg): 75.6%; clinical observation after dosing [7, 13]: lying on side and immobile with heavy breathing for about 1 min; AUC(0-inf) ([7]; male, CD-1, mouse, in vivo, iv, 1.5 mg/kg, AUCinf): 1530 ng·h/mL; AUC(0-t) [7, 13]: 1300 ng·h/mL; clearance ([7]; male, CD-1, mouse, in vivo, iv, 1.5 mg/kg, CLp): 19.3 mL/min/kg; concentration at 24 h [7, 13]: 5.29 ng/mL; MRT inf [7, 13]: 4.93 h; Vd ([7]; male, CD-1, mouse, in vivo, iv, 1.5 mg/kg, Vss): 5.63 L/kg; half-life ([7]; male, CD-1, mouse, in vivo, iv, 1.5 mg/kg, t1/2): 6.17 h; AUC(0-inf) ([7]; male, CD-1, mouse, in vivo, iv, 1.5 mg/kg, total systemic exposure (AUCinf)): 1320 ng·h/mL; Tmax [7, 14]: 0.5 h; bioavailability [7, 14]: 75%; time to mean peak plasma concentration [7, 14]: ≤ 30 min; AUC(0-inf) ([7]; male, CD-1, mouse, in vivo, po, 10 mg/kg, AUCinf): 6670 ng·h/mL; AUC(0-t) [7, 14]: 6420 ng·h/mL; concentration at 24 h [7, 14]: 33.2 ng/mL; Cmax ([7]; male, CD-1, mouse, in vivo, po, 10 mg/kg, Cmax): 807 ng/mL; MRT inf [7, 14]: 6.7 h; half-life ([7]; male, CD-1, mouse, in vivo, po, 10 mg/kg, t1/2): 5.14 h; AUC(0-inf) ([7]; male, CD-1, mouse, in vivo, po, 10 mg/kg, total systemic exposure (AUCinf)): 6620 ng·h/mL; clinical observation after dosing ([7]; mice, slow IV injection at 3 mg/kg, first animal): died immediately after a slow IV injection; half-life ([7]; mouse, in vivo, CD-1 male mice, 10 mg/kg PO, individual animals, read-out: t1/2 (converted)): 5.11 h; CPP: time in white (drug-paired) chamber (paclitaxel CIPN mice; CIPN mice (paclitaxel), 10 mg/kg): spent more time in the white chamber vs. dark chambers; CPP: effect in mice without CIPN (reward) (paclitaxel CIPN mice; mice that did not have CIPN): no effect
